{"source": "patent US8216825B2", "about": "“Aquaculture biocide methods and compositions” (priority 2010, dated 2012)", "key": {"Chlorella sp. [1]": {"test_system": "Chlorella sp.", "experiment": "12-day mason jar test, algal optical density at 680 nm, algae without rotifers (Example 1)", "type": "cell-based", "details": "A+M: 30 mg/L methoprene, no rotifers", "experimental": "(§1) Algae were expanded into 500 ml of 20% artificial seawater in mason jars and subjected to five treatment conditions. Five replicates were conducted for each of the conditions. The test conditions were: control (algae only), rotifers without methoprene (A+R), methoprene without rotifers (A+M) methoprene with rotifers (A+R+M), and double concentration methoprene with rotifers (A+R+2M). In the mason jars containing solutions “with rotifers”, 9 mL of media were replaced with rotifer solution. In the A+M and A+R+M groups, the solution was modified to give a methoprene concentration of 30 mg/L. In the A+R+2M group, the solution was modified to give a methoprene concentration of 62 mg/L.\n(§2) During the test period, algae was kept on a 12-hour light: 12-hour dark photoperiod at 26.8° C. The pH and specific gravity of the 20% artificial seawater solution were measured to be 8.92±0.02 and 1.013 respectively.\n(§3) Optical density measurements were taken on days 5, 6, and 12 after inoculation. Each jar was first agitated either by gently rocking back and forth until minimal algal residue could be seen on the bottom. Occasionally, a sterile tube or pipette was employed to scrape some residue into the solution. Once minimal algal residue remained in the jar, a 5-mL sample of solution was pipetted out with a sterile pipette. The sample's optical density was read with a spectrometer at 680 nm. Control and A+R sample readings were blanked with a solution of 10 mL modified Bristol medium per 40 mL 20% artificial seawater. A+M and A+R+M sample readings were blanked with a solution of 10 mL modified Bristol medium per 38.5 mL 20% artificial seawater and 1.5 mL methoprene-seawater solution. A+R+2M sample readings were blanked with a solution of 10 mL modified Bristol medium per 36.9 mL 20% artificial seawater and 3.1 mL methoprene-seawater solution. Optical density readings were taken in absorbance units."}, "Brachionus sp. rotifers [2]": {"test_system": "Brachionus sp. rotifers", "experiment": "12-day mason jar test, algal optical density at 680 nm, algae with rotifers (Example 1)", "type": "in vivo", "experimental": "as §1, §2, §3"}, "Brachionus sp. rotifers [3]": {"test_system": "Brachionus sp. rotifers", "experiment": "Live rotifer count by microscopy in 30-μL samples (Example 1)", "type": "in vivo", "details": "13 days after inoculation", "experimental": "One day prior to the general test period, the rotifer concentration was determined. The rotifer concentration of the bottle was estimated by counting rotifers in three trials of 30-μL samples with a Swift microscope at 1.25× magnification. Rotifer concentration was estimated again with the same procedure on the day of inoculation.\n12 days after inoculation a 5-mL sample was extracted from each of the 15 jars containing rotifer solution. 24 hours after extraction, these samples were examined with microscopy. From each of the fifteen 5-mL samples, three 30-μL samples were pipetted onto glass slides and the rotifers were counted with a stereoscopic microscope at 2×-4× magnification."}, "Chlorella sp. [4]": {"test_system": "Chlorella sp.", "experiment": "Methoprene with acetone added to Chlorella, growth (Example 2)", "type": "cell-based", "details": "methoprene 20 mg/L with acetone 2% v/v", "experimental": "Methoprene at 20 mg/L with acetone at 2% v/v was added to Chlorella sp."}, "rotifers [5]": {"test_system": "rotifers", "experiment": "Rotifer-infested photobioreactor, methoprene with acetone (Example 3)", "type": "in vivo", "details": "methoprene 30 mg/L or less with acetone between 1 and 27 ml/L; present-tense example", "experimental": "Methoprene at a concentration of 30 mg/L or less is added to the algal solution in a rotifer-infested photobioreactor. Acetone at a concentration between 1 and 27 ml/L is also added as an adjuvant. At these concentrations, acetone may (while subjecting the algal crop to minimal harm) act as a surfactant, allowing methoprene to become more dissolved. […] Wait approximately 30 days before renewing the media so that methoprene can biodegrade sufficiently before disposal of water."}, "Chlorella sp. [6]": {"test_system": "Chlorella sp.", "experiment": "Biocide toxicity tests in test tubes, algal optical density at 680 nm (Example 5)", "type": "cell-based", "details": "for mean optical density on day 12 compared with control group: 20 mg/L methoprene, 2% acetone respectively, P>0.05; for mean optical density on day 12 compared with control group / inhibition of algal growth: 2.0 mg/L resmethrin; for inhibition of algal growth: applied without rotifers, experimental concentrations 20 mg/L methoprene, 2% acetone; for mean optical density at day 12 compared with control: printed P>0.5", "experimental": "27 ml of Chlorella in Alga-Gro Freshwater Medium were added to 300 ml modified Bristol medium and allowed to grow without agitation for 30 hours. The 327 ml of algal solution were then expanded into a total of 700 ml modified Bristol medium and allowed to grow without agitation. After 42 hours, the 700 ml of algal solution were split up into 60 individual test tubes. Each test tube received 10 ml of algal solution, along with 1 ml of rotifer solution (or media) and 4 ml of reagent solution, for a total of 15 ml.\nAn initial Brachionus sp. population of about 30 individuals was cultured without agitation in one 60-ml jar for 3 days. Then, 1 ml of rotifer solution was pipetted into each of the 40 test tubes designated for rotifer toxicity assessment.\nThe 60 test tubes represented 12 groups, each with five replicates. The test group names and conditions are as follows (Table 4). The group “20M−R” contained algae, 20 mg/l of methoprene, and no rotifers. The group “20M+R” contained algae, 20 mg/l of methoprene, and rotifers. The group “5M+R” contained algae, 5 mg/l of methoprene, and rotifers. The group “5M+A+R” contained 5 mg/l of methoprene, 2% acetone (v/v), and rotifers. The group “2R−R” contained algae, 2.0 mg/I of resmethrin, and no rotifers. The group “2R+R” contained algae, 2.0 mg/l of resmethrin, and rotifers. The group “5R+R” contained algae, 0.5 mg/l of resmethrin, and rotifers. The group “5R+A+R” contained 0.5 mg/l of resmethrin, 2% acetone, rotifers. The group “A−R” contained algae, 2% acetone and no rotifers. The group “A+R” contained algae, 2% acetone and rotifers. The group “R” contained algae and rotifers without any extra reagents. The group “C” contained algae in media only.\nOrganisms were cultured and assessed for a test period of 12 days. During the test period, organisms were subjected to agitation at 60 rpm and a photoperiod of 12 hr light, 12 hr dark. The day that organisms were combined into the 60 test tubes was designated as day 0. A 1000-μl sample was removed from each tube for optical density analysis every other day, beginning on day 0. The optical densities of these samples were determined spectrometrically at 680 nm. On days 0, 6, and 12, a 250-μl sample was removed from each of the 1000-μl samples from rotifer-containing groups. Rotifers per 250-μl sample were counted with a dissecting microscope.\nThe optical densities of each of the 12 groups in the pesticide toxicity tests were averaged and plotted on a time plot (FIGS. 3 & 4). Standard deviation values and average algal growth rates were calculated for each group and day. T-tests were performed to determine the statistical significance of difference between relevant means. A linear regression model was used to compare the optical density averages of the “20M−R” group and the “C” control group. A linear regression of time against optical density in the control group of tubes was compared with a logarithmic regression model of time against optical density in the control flask. (FIG. 5)."}, "rotifers [7]": {"test_system": "rotifers", "details": "at concentrations found in this study to be nontoxic to algae; literature findings; cited from earlier work"}, "Brachionus plicatilis": {"test_system": "Brachionus plicatilis", "details": "Marcial et al. (2005), lower concentration of the project is 30 mg/L; cited from earlier work"}, "[8]": {"details": "background statement; cited from earlier work"}, "humans or algae": {"test_system": "humans or algae", "details": "background statement; cited from earlier work"}, "Daphnia magna": {"test_system": "Daphnia magna", "experiment": "Alpha-pinene/propylene glycol in algal medium, Daphnia control (Example 4)", "type": "in vivo", "details": "approx. 1:1 (w/w) alpha-pinene and propylene glycol, equal to or less than 136 mg/L; present-tense example", "experimental": "(§4) An approximate 1:1 (w/w) solution of alpha-pinene and propylene glycol is made. Alpha-pinene is the active agent, while propylene glycol is a surfactant. This mixture is added to the algal medium at a concentration equal to or less than 136 mg/L. Daphnia magna and rotofers are controlled in the aquaculture."}, "rotofers": {"test_system": "rotofers", "experiment": "Alpha-pinene/propylene glycol in algal medium, rotifer control (Example 4)", "type": "in vivo", "details": "approx. 1:1 (w/w) alpha-pinene and propylene glycol, equal to or less than 136 mg/L; present-tense example", "experimental": "as §4"}}, "note": "Entries after “also recorded” stand apart in the source; their conditions may differ.", "data": [{"smiles": "COC(C)(C)CCC[C@H](C)C/C=C/C(C)=C/C(=O)OC(C)C", "note": "(racemic) [methoprene]", "values": [{"measurement": "Mean optical density ± one standard deviation", "setting": "Chlorella sp. [1]; 5 days after inoculation", "value": "0.84 ± 0.02"}, {"measurement": "Mean optical density ± one standard deviation", "setting": "Chlorella sp. [1]; 6 days", "value": "0.89 ± 0.01"}, {"measurement": "Mean optical density ± one standard deviation", "setting": "Chlorella sp. [1]; 12 days", "value": "0.93 ± 0.02"}, {"measurement": "average specific growth rate of algae", "setting": "Chlorella sp. [1]; between 5 and 12 days after inoculation", "value": "0.0065 log(AU)/day"}, {"measurement": "Mean optical density ± one standard deviation", "setting": "Brachionus sp. rotifers [2]; A+R+2M: 62 mg/L methoprene with rotifers, 5 days", "value": "0.6 ± 0.2"}, {"measurement": "Mean optical density ± one standard deviation", "setting": "Brachionus sp. rotifers [2]; A+R+2M: 62 mg/L methoprene with rotifers, 6 days", "value": "0.7 ± 0.1"}, {"measurement": "Mean optical density ± one standard deviation", "setting": "Brachionus sp. rotifers [2]; A+R+2M: 62 mg/L methoprene with rotifers, 12 days", "value": "0.7 ± 0.2"}, {"measurement": "Mean optical density ± one standard deviation", "setting": "Brachionus sp. rotifers [2]; A+R+M: 30 mg/L methoprene with rotifers, 5 days", "value": "0.6 ± 0.2"}, {"measurement": "Mean optical density ± one standard deviation", "setting": "Brachionus sp. rotifers [2]; A+R+M: 30 mg/L methoprene with rotifers, 6 days", "value": "0.7 ± 0.2"}, {"measurement": "Mean optical density ± one standard deviation", "setting": "Brachionus sp. rotifers [2]; A+R+M: 30 mg/L methoprene with rotifers, 12 days", "value": "0.7 ± 0.2"}, {"measurement": "average specific growth rate of algae", "setting": "Brachionus sp. rotifers [2]; A+R+M: 30 mg/L methoprene with rotifers, between 5 and 12 days after inoculation", "value": "0.0078 log(AU)/day"}, {"measurement": "average optical density", "setting": "Brachionus sp. rotifers [2]; double methoprene concentration with rotifers (A+R+2M, 62 mg/L), 12 days", "value": 0.71, "unit": "AU"}, {"measurement": "average optical density", "setting": "Brachionus sp. rotifers [2]; methoprene with rotifers (A+R+M, 30 mg/L), 12 days, rotifers only 0.47 AU, control 0.96 AU", "value": 0.69, "unit": "AU"}, {"measurement": "live rotifers in 30-μL samples", "setting": "Brachionus sp. rotifers [3]; A+R+2M: 62 mg/L methoprene", "value": "zero"}, {"measurement": "live rotifers in 30-μL samples", "setting": "Brachionus sp. rotifers [3]; A+R+M: 30 mg/L methoprene, A+R group 8.7 per 30 μL", "value": "zero"}, {"measurement": "growth reduction of Chlorella sp.", "setting": "Chlorella sp. [4]", "value": "No growth reduction"}, {"measurement": "effect on rotifers", "setting": "rotifers [5]", "value": "eliminates rotifers"}, {"measurement": "mean optical density on day 12 compared with control group", "setting": "Chlorella sp. [6]", "value": "not significantly different"}, {"measurement": "inhibition of algal growth", "setting": "Chlorella sp. [6]", "value": "Neither methoprene, resmethrin, nor acetone, when applied without rotifers, was found to inhibit algal growth"}, {"measurement": "inhibition of algal growth", "setting": "Chlorella sp. [6]; listed as Methoprene", "value": "not found to inhibit algal growth"}, {"measurement": "mean optical density at day 12 compared with control", "setting": "Chlorella sp. [6]; group 5M+R: 5 mg/L methoprene, rotifers", "value": "significantly lower"}, {"measurement": "harm to rotifers", "setting": "rotifers [7]", "value": "significantly harmful to rotifers"}, {"measurement": "24-hr LC50", "setting": "Brachionus plicatilis", "value": "lower methoprene concentration utilized in this project"}, {"measurement": "degradation in sunlight", "setting": "[8]", "value": "rapidly degrades in sunlight"}, {"measurement": "toxicity to humans or algae", "setting": "humans or algae", "value": "practically non-toxic"}]}, {"smiles": "CC(C)=O", "note": "[acetone]", "values": [{"measurement": "mean optical density on day 12 compared with control group", "setting": "Chlorella sp. [6]", "value": "not significantly different"}, {"measurement": "inhibition of algal growth", "setting": "Chlorella sp. [6]", "value": "Neither methoprene, resmethrin, nor acetone, when applied without rotifers, was found to inhibit algal growth; also recorded: not found to inhibit algal growth"}]}, {"smiles": "CC1=CCC2CC1C2(C)C", "note": "(stereo not drawn) [alpha-pinene]", "values": [{"measurement": "control of Daphnia magna in the aquaculture", "setting": "Daphnia magna", "value": "controlled"}, {"measurement": "control of rotifers in the aquaculture", "setting": "rotofers", "value": "controlled"}]}, {"smiles": "CC(C)=CC1C(C(=O)OCc2coc(Cc3ccccc3)c2)C1(C)C", "note": "(stereo not drawn) [resmethrin]", "values": [{"measurement": "mean optical density on day 12 compared with control group", "setting": "Chlorella sp. [6]", "value": "not significantly different"}, {"measurement": "inhibition of algal growth", "setting": "Chlorella sp. [6]", "value": "Neither methoprene, resmethrin, nor acetone, when applied without rotifers, was found to inhibit algal growth; also recorded: not found to inhibit algal growth"}, {"measurement": "mean optical density at day 12 compared with control", "setting": "Chlorella sp. [6]; group 2R−R as printed: 2.0 mg/L resmethrin, no rotifers", "value": "significantly lower"}, {"measurement": "harm to rotifers", "setting": "rotifers [7]", "value": "significantly harmful to rotifers"}]}]}
